Experimental data reported in patent publication US20030166516A1, “Methods of treating, preventing, or inhibiting inflammation with exumolide compounds” (priority 2001, published 2003).
Where a SMILES comes first, the peptide text is derived from it. [ ]: non-standard residue; d: D form. Hica(2S) = CC(C)C[C@H](O)C(=O)O; NMeL = CN[C@@H](CC(C)C)C(=O)O

How the values were obtained:
[1] = tested on: edema caused by phorbol 12-myristate 13-acetate (PMA) in mouse ear; assay: Inhibition of mouse ear edema (PMA mouse ear model); format: in vivo, mice; settings: for inflammation caused by PMA (result in words): irritant phorbol 12-myristate 13-acetate (PMA)
Procedure: The efficacy of Exumolide compounds as an anti-inflammatory agent was established by the following assay. Exumolide A was topically applied in acetone to the inside pinnae of the ears of mice in a solution comprising an edema-causing irritant, phorbol 12-myristate 13-acetate (PMA). Specifically, 2 μg/ear of PMA alone or in combination with 50 μg/ear of Exumolide A was applied to the left ears (5 mice per treatment group) and acetone was applied to all right ears. After 3 hours, 20 minutes incubation, the mice were sacrificed, the ears removed and bores taken and weighed. Edema was measured by subtracting the weight of the right ear (acetone control) from the weight of the left ear (treated). Results were recorded as % decrease (inhibition) or % increase (potentiation) in edema relative to the PMA control group edema.

[2] = tested on: cell proliferation; assay: conventional [3H]-thymidine incorporation assays; format: cell-based
Excerpt: Thus, the present invention also provides a method of treating, preventing, or inhibiting inflammation or an inflammatory disease or disorder in a subject without inhibiting cell proliferation in the subject.

[3] = reported on isolation, Fenical et al. (1998) Tetrahed. Letts. 39:2463-2466; cited from earlier work

SMILES	Edema (mg ± SEM) ([1]; 50 ug/ear topical in acetone with 2 μg/ear PMA, left minus right ear bore weight after 3 hours, 20 minutes) [mg]	inflammation caused by PMA (result in words) [1]	inhibition of cell proliferation [2]	antibiotic activity [3]
CC(C)C[C@@H]1OC(=O)[C@@H]2CCCN2C(=O)[C@H](Cc2ccccc2)NC(=O)[C@H](Cc2ccccc2)NC(=O)[C@H](CC(C)C)N(C)C(=O)[C@@H]2CCCN2C1=O [Exumolide A] (cyclo(FFP[Hica(2S)]P[NMeL]))	4.3 ± 1.0	prevent or inhibit inflammation	do not inhibit cell proliferation	exhibit antibiotic activity
CC(C)C[C@@H]1NC(=O)[C@@H]2CCCN2C(=O)[C@H](CC(C)C)OC(=O)[C@@H]2CCCN2C(=O)[C@H](Cc2ccccc2)NC(=O)[C@H](Cc2ccccc2)NC1=O [Exumolide B] (cyclo(FFP[Hica(2S)]PL))	–	prevent or inhibit inflammation	do not inhibit cell proliferation	exhibit antibiotic activity
